This is an account of results in ChEMBL document CHEMBL1141539, “Neutral 5-substituted 4-indazolylaminoquinazolines as potent, orally active inhibitors of erbB2 receptor tyrosine kinase” (Bioorg Med Chem Lett, 2008).

In brackets after ≈: the same amount, converted by molar mass.

A short description of data set [1]: Solubility in aqueous phosphate buffer at pH 7.4 after 24 hrs. The format is physicochemical.
The subject of a further data set is Phospholipidosis. Nature of the data set: In vivo phospholipidosis in rat. In kind it is ADME, organism-based.
Data set [2] in a line: Volume of distribution at steady state in dog at 1 mg/kg, iv and 2 mg/kg, po. To be noted: in vivo, read-out: Vdss. The format is ADME, organism-based, Canis lupus familiaris.
Data set [3] can be described thus: Volume of distribution at steady state in rat at 1 mg/kg, iv and 2 mg/kg, po. In kind it is ADME, organism-based. The conditions noted are these: in vivo, read-out: Vdss.
Data set [4] in a line: Oral bioavailability in rat at 2 mg/kg. The format is ADME, organism-based. To be noted: in vivo.
A short description of data set [5]: Oral bioavailability in dog at 2 mg/kg, po. The format is ADME, organism-based, Canis lupus familiaris. To be noted: in vivo.
Data set [6] can be described thus: Distribution coefficient, log D at pH 7.4. The format is physicochemical. To be noted: octanol/water.
Data set [7] can be described thus: Permeability across dog MDCK-MDR cell membrane. In kind it is ADME, cell-based, Canis lupus familiaris. To be noted: MDCK-MDR1.

One may read the solubility as how much of the substance goes into solution per volume. Higher therefore signals much dissolved substance. `C[C@@H](Oc1cccc2ncnc(Nc3ccc4c(cnn4Cc4ccccn4)c3)c12)C(N)=O`: the solubility at 24 h in data set [1] came out at 3 µM (≈ 1.32 µg/mL).
As for `CNC(=O)[C@@H](C)Oc1cccc2ncnc(Nc3ccc4c(cnn4Cc4ccccn4)c3)c12`, the solubility at 24 h in data set [1] is 4 µM (≈ 1.81 µg/mL).
On the same count and under the same terms, to `C[C@@H](Oc1cccc2ncnc(Nc3ccc4c(cnn4Cc4cccc(F)c4)c3)c12)C(=O)N(C)C` belongs 3 µM (≈ 1.45 µg/mL).
The same measure, in the same setting: then `C[C@@H](Oc1cccc2ncnc(Nc3ccc4c(cnn4Cc4cscn4)c3)c12)C(=O)N(C)C`, with 44 µM (≈ 20.8 µg/mL); and `C[C@@H](Oc1cccc2ncnc(Nc3ccc4c(cnn4Cc4nccs4)c3)c12)C(=O)N(C)C`, with 29 µM (≈ 13.7 µg/mL).
The term bioavailability denotes the share of a dose that reaches the circulation, judged against a reference dose that is usually intravenous. As usually defined, the logD is lipophilicity at a set pH, counting ionised and neutral species. Lower therefore signals a more hydrophilic compound. In general, Papp refers to the rate of passage across a membrane or cell layer, normalised by area and donor concentration. Low values mean slow passage, high ones fast passage. In the case of `C[C@@H](Oc1cccc2ncnc(Nc3ccc4c(cnn4Cc4nccs4)c3)c12)C(=O)N1CCOCC1`, the Phospholipidosis entry in the data set on Phospholipidosis is given as “Not Active”. Further, the Vd came out at 3.1 L/kg in data set [2] and 2 L/kg in data set [3]. The bioavailability in data set [4] came out at 50%; in data set [5] it was 36%. The same compound displayed a solubility at 24 h in data set [1] of 101 µM (≈ 52.1 µg/mL). This compound also showed a logD in data set [6] of 2.6. The apparent permeability (Papp) in data set [7] was 10 ×10⁻⁶ cm/s.
For `C[C@@H](Oc1cccc2ncnc(Nc3ccc4c(cnn4Cc4ccccn4)c3)c12)C(=O)N(C)C`, the Vd is 2.3 L/kg in data set [2] and 2.1 L/kg in data set [3]. The bioavailability was found to be 36% in data set [4] and 40% in data set [5]. The amount in solution in data set [1] (solubility at 24 h) came to 270 µM (≈ 126 µg/mL). The logD in data set [6] was 2.9.
